From patent US12064488B2, “Nitroxide containing amyloid binding agents for imaging and therapeutic uses” (The Regents of the University of California, priority 2015, dated 2024)

Tests used:
MC65 neuroblastoma cell = assay: MC65 assay: protection against AB toxicity (MTT cell viability); format: cell-based, human; details: MC65 cells, TC removal, 3 days
Source text: The ability of agents to protect against AB toxicity can be measured according to their effect on the survivability of MC65 neuroblastoma cell (Maezawa et al. (2008) J. Neurochem. 104:457). In the MC65 model system, expression of the C-terminal region (C99) of the amyloid precursor protein (APP) is turned on in the absence of the transgene suppressor, tetracycline (TC). Upon APP-C99 induction (TC-), AB is generated after proteolysis by cellular γ-secretase […]. In the absence of protection, death of MC65 neuroblastoma cells results due to the intracellular accumulation of oligomeric AB (ABO). […] In Table 2 below, we report the ability of the SL-LRL1, SL-LRL2, SL-Res1, SL-Res2, and SL-Res3 compounds to protect against AB toxicity in the MC65 assay.
The cell culture model used for these studies was the human neuroblastoma cell line (MC65) equipped with conditional expression of the carboxyl-terminal 99 residues of the amyloid-beta precursor protein (APP-C99). AB is generated from APP-C99 after proteolysis by cellular γ-secretase. To induce cellular AB production, the transgene suppressor, tetracycline (TC), was removed from the media, as described previously (Maezawa et al. (2008)). Intracellular ABO starts to accumulate as early as 4 hours after TC removal. The compounds were added immediately after TC removal, and the cells were maintained for 3 days without media change before measuring cell viability. The cytotoxicity was determined on day 3 using a colorimetric MTT [3-(4,5-dimethylthiazol-2yl)-2,5-diphenyltetrazolium bromide] cell viability assay.

[1] = target: T1, amyloid plaque (AB) in 5xFAD mouse brain slices (Homo sapiens, UniProt P05067); assay: T2/T2*-weighted MRI of coronal brain slices labeled in vitro with spin-labeled compound; details: 5xFAD brain slices/specimens incubated in vitro with compound
T1 construct: produces elevated amyloid beta levels in the brain; from tissue; host or cells: brain of 5xFAD transgenic mice (400 µm coronal slices)
Protocol: MR images of coronal brain slices (400 μm thick) were obtained from a transgenic AD mouse model (5xFAD) with and without exposure to HO-4160 nitroxide spin-labeled […] (SLF), where the SLF-negative sample was treated with DMSO vehicle equal to the SLF-exposed sample. Following the labeling period with either SLF or the DMSO vehicle control, the brain slices were imbedded into agarose and imaged by MRI. Measurements were made in three separate experiments, using slices from unique AD and wild type (WT) mice in each experiment.
5xFAD brain slices treated with SLF decrease in intensity to a mean value of 1.6±0.1×10^5, compared to the T2-weighted images of the untreated samples, with a mean value of 2.6±0.1×10^5. Evaluation of the two sets by the unpaired t-test supports a significant difference among these groups (p<0.01). With respect to T2*, there also is a significant (p<0.02) intensity difference between the two groups of 5xFAD specimens, with a mean intensity of 1.4±0.2×10^5 for the SLF-treated samples, and a mean intensity of 2.3±0.1×10^5 for the untreated samples. In addition, T2 and T2*-weighted imaging of corresponding slices from WT mice show no difference between the SLF-treated and SLF-negative (not shown) specimens.
Both T2 and T2* signal suppression was calculated in each of the three experiments. The average suppression values were calculated according to the equation: SS %=[(SIref−SI)/SIref]*100 where SI is the average signal intensity of the 5xFAD SLF+ section and SIref is the average signal intensity of the 5xFAD SLF− or WT SLF+ section. Calculation results are plotted in FIG. 7, where both the gray and white bars represent the suppression of MRI intensity found in the 5xFAD specimen following SLF treatment. The gray bars show signal suppression relative to the untreated 5xFAD brain, while the white bars compare the suppression relative to the SLF-treated specimens from WT mice. Relative to both controls, SLF generates ˜40% signal suppression for samples carrying a high amyloid-beta load. In the absence of SLF, the average intensity of the 5xFAD brain sections have a slightly lower T2/T2* MRI intensity than specimens from WT mice. This can be attributed to iron bound to deposits of AB, which has been previously observed in the MRI analyses of AD model mice (Vanhoutte et al. (2005); Jack et al. (2007); and Wadghiri et al. (2012)). Thus, the relative suppression is slightly higher when comparing the +SLF AD sample to the +SLF WT sample.

[2] = target: T2, amyloid (AB) in 5xFAD mouse brain tissue (Homo sapiens, UniProt P05067); assay: EPR spectroscopy of brain slices labeled in vitro; format: binding; details: 5xFAD brain tissue treated in vitro
T2 construct: produces elevated amyloid beta levels in the brain; from tissue; host or cells: brain of 5xFAD transgenic mice (400 µm coronal slices)
Source text: Samples were loaded into a quartz cell and examined by electron paramagnetic resonance (EPR) spectroscopy. […] Thus, in agreement with results from the MRI measurements, the lack of EPR signal from the WT+SLF brain section excludes non-specific binding of SLF in these tissue samples. […] The broad EPR spectrum from the +SLF 5xFAD reflects a strongly immobilized spin probe, consistent with high affinity binding to a solidified matrix.

T1 sequence (P05067 672-713 limits assumed): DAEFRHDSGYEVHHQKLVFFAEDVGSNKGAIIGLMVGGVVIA
T2 sequence (P05067 672-713 limits assumed): as above

CC1(C)CC(NC(=O)COc2cc(O)cc(/C=C/c3ccc(O)cc3)c2)C(C)(C)N1[O] (centres unmarked) [SL-Res2, (E)-2-(3-hydroxy-5-(4-hydroxystyryl)phenoxy)-N-(2,2,5,5-tetramethyl-1-oxylpyrrolidin-3-yl)acetamide Radical]
EC50 (MC65 neuroblastoma cell): 680 nM
contrast in T2*-weighted imaging [1]: ability to generate negative contrast

Cc1c(C(N)=O)c(=O)oc2cc3c(cc12)nc(NCC1=CC(C)(C)N([O])C1(C)C)n3Cc1cccc(I)c1 [SL-LRL2, 3-(3-iodobenzyl)-8-methyl-6-oxo-2-(((2,2,5,5-tetramethyl-1-oxyl-2,5-dihydro-1H-pyrrol-3-yl)methyl)amino)-3,6-dihydrochromeno[6,7-d]imidazole-7-carboxamide Radical]
EC50 (MC65 neuroblastoma cell): 3500 nM
contrast in T2*-weighted imaging [1]: ability to generate negative contrast

Cc1c(C(N)=O)c(=O)oc2cc3c(cc12)nc(NCCNC(=O)C1CC(C)(C)N([O])C1(C)C)n3Cc1cccc(I)c1 (centres unmarked) [SL-LRL1, 3-(3-iodobenzyl)-8-methyl-6-oxo-2-((2-(2,2,5,5-tetramethyl-1-oxylpyrrolidine-3-carboxamido)ethyl)amino)-3,6-dihydrochromeno[6,7-d]imidazole-7-carboxamide Radical]
EC50 (MC65 neuroblastoma cell): 4500 nM
EPR signal / binding to brain tissue [2]: confirming the binding
contrast in T2*-weighted imaging [1]: strong negative contrast

CC1(C)C=C(C(=O)Oc2ccc(/C=C/c3cc(O)cc(O)c3)cc2)C(C)(C)N1[O] [SL-Res3, (E)-4-(3,5-dihydroxystyryl)phenyl 2,2,5,5-tetramethyl-1-oxyl-2,5-dihydro-1H-pyrrole-3-carboxylate Radical]
EC50 (MC65 neuroblastoma cell): 410 nM
contrast in T2*-weighted imaging [1]: ability to generate negative contrast

CC1(C)C=C(COc2cc(O)cc(/C=C/c3ccc(O)cc3)c2)C(C)(C)N1[O] [SL-Res1]
EC50 (MC65 neuroblastoma cell): 450 nM
contrast in T2*-weighted imaging [1]: ability to generate negative contrast
